Patent publication US5324648A, “Substituted isocoumarins as serine protease inhibitors and anti-inflammatory agents” (Georgia Tech Research Corporation, priority 1992, dated 1994)
Like-named read-outs stand apart in the source and are kept apart here.

Experiments:
cathepsin G = molecular target: T1, cathepsin G (Homo sapiens, UniProt P08311); assay: Inactivation of cathepsin G; type: biochemical; design: percentage of inhibition: concentration or dose not given beside the values; conditions: for percentage of inhibition: after 5 min incubation; for kinact/KI: read-out: kobs/[I]
T1 construct: from tissue; host or cells: human leukocytes
T1 sequence (P08311 21-255): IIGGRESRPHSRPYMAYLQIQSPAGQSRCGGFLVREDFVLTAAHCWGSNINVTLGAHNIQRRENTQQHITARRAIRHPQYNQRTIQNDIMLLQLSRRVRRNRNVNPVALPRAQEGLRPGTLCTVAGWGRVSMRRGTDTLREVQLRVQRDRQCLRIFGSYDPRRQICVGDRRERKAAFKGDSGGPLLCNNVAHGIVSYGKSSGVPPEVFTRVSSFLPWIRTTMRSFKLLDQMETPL

[1] = molecular target: T2, human leukocyte elastase (HLE) (Homo sapiens, UniProt P08246); assay: Inactivation of human leukocyte elastase (HLE); type: biochemical
T2 construct: from tissue; host or cells: human leukocytes (from the name)
T2 sequence (P08246 30-267): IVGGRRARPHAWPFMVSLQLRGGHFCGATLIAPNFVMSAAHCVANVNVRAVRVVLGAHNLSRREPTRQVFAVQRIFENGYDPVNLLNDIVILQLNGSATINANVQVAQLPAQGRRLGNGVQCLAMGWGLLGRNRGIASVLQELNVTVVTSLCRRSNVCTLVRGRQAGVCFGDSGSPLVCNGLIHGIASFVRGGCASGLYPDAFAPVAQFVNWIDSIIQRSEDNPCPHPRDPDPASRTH
Procedure: (§1) Inactivation rates of serine proteases by substituted isocoumarins were measured by the incubation method. An aliquot of inhibitor (25 or 50 μl) in Me2 SO was added to a buffered enzyme solution (0.01-2.3 μM) to initiate the inactivation. Aliquots (50 μl) were withdrawn at various intervals and the residual enzymatic activity was measured. Me2 SO concentration in the reaction mixture was 8-12% (v/v). 0.1 Hepes, 0.01M CaCl2, pH 7.5 buffer was utilized for trypsin and coagulation enzymes. 0.1M Hepes, 0.5M NaCl, pH 7.5 was utilized for other serine proteases. […] Peptide thioesters or peptide nitroanilides with appropriate sequence were used as substrates for various serine proteases. All peptide thioester hydrolysis rates were measured with assay mixtures containing 4,4'-dithiodipyridine (ε324 =19800M^-1 cm^-1 ; Grasetti & Murray, Arch. Biochem. Biophys. 119, pp 41-49 (1967)). Peptide 4-nitroanilide nitroanilide hydrolysis was measured at 410 nm (ε410 =8800M^-1 cm^-1 ; Erlanger et al., Arch. Biochem. Biophys. 95, pp 271-278 (1961)). First order inactivation rate constant (kobs) were obtained from plots of ln (vt /vo) vs time, and the correlation coefficients were greater than 0.98.
(§2) ^a Inactivation rates were measured at 0.1M Hepes, 0.5 NaCl, pH 7.5,
(§3) 8-12% Me2 SO and 25° C. by incubation method.
(§4) ^a Inhibition rates were measured in 0.1M Hepes, 0.05M NaCl, pH 7.5
buffer, 8-9% Me2 SO and at 25° C.
(§5) ^a Inhibition constants were in 0.1M Hepes, 0.5M NaCl, pH 7.5 buffer,
8-9% Me2 SO and at 25° C.
(§6) ^a Inhibition rates were measured in 0.1M Hepes, 0.5M NaCl, 2.5%
Me2 SO, pH 7,5 and at 25° C.
(§7) ^a Inhibition was measured in 0.1M Hepes, 0.5M NaCl, pH 7.5 buffer,
(§8) 5-10% Me2 SO and at 25° C. Suc--Val--Pro--Phe--NA (0.48 mM)
(§9) was used as the substrate for chymotrypsin and cat G.
(§10) ^a Inhibition rates were measured in 0.1M Hepes, 0.5M NaCl, pH 7.5

[2] = molecular target: T3, porcine pancreatic elastase (PPE) (Sus scrofa, UniProt P00772); assay: Inactivation of porcine pancreatic elastase (PPE); type: biochemical; conditions: for kinact/KI: read-out: kobs/[I]
T3 construct: from tissue; host or cells: porcine pancreas (from the name)
T3 sequence (P00772 27-266): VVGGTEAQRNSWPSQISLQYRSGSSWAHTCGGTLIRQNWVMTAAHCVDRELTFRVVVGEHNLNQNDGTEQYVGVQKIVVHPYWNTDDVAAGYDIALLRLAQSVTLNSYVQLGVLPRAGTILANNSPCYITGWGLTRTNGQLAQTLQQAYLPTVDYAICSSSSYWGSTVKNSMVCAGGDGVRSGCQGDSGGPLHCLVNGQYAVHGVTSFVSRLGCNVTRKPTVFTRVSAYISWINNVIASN
Procedure: as §1, §2, §3, §4
buffer, 8-9% Me2 SO and at 25° C.
as §5
8-9% Me2 SO and at 25° C.
as §6
Me2 SO, pH 7,5 and at 25° C.
as §7, §8, §9, §10

chymotrypsin = chymotrypsin (Bos taurus, UniProt P00766); assay: Inactivation of chymotrypsin; type: biochemical, bovine
[3] = Table XVI, pH 7.5, 25° C, [I] 35-710 μM
[4] = Table XVI, pH 7.5, 25° C, [I] 0.04-2.0 mM
[5] = Table XVI, pH 7.5, 25° C, [I] 1.7-58 μM, read-out: kobs/[I]
[6] = pH 7.5, Table XVI, second order, equimolar inhibitor and enzyme, read-out: kobs/[I]
[7] = pH 7.5, Table XVI, biphasic plot, read-out: kobs/[I] (biphasic, first value)
[8] = pH 7.5, Table XVI, biphasic plot, read-out: kobs/[I] (biphasic, second value)
[9] = Table XVI, pH 7.5, 25° C, [I] 0.07-710 μM, read-out: kobs/[I]
[10] = pH 7.5, Table XII, 2.5% Me2SO, 25° C, [I] 8.7-87 μM
[11] = pH 7.5, Table XII, 2.5% Me2SO, 25° C, [I] 0.7-1.9 μM, read-out: kobs/[I]
[12] = pH 7.5, Table XII, 2.5% Me2SO, 25° C, [I] 34-56 μM
[13] = pH 7.5, Table XII, 2.5% Me2SO, 25° C, [I] 3.4-70 μM, read-out: kobs/[I]

Compound	kinact/KI [2, 4] [M⁻¹ s⁻¹]	kinact/KI (chymotrypsin; [5]) [M⁻¹ s⁻¹]	kinact/KI (cathepsin G; [3]) [M⁻¹ s⁻¹]	kinact/KI [1, 6] [M⁻¹ s⁻¹]	further results
CCCOCCOc1oc(=O)c2cc(N)ccc2c1Cl					kobs/[I] (cathepsin G; [3]): 2.6 M⁻¹ s⁻¹; kobs/[I] ([1]; Table XVI, pH 7.5, 25° C, [I] 0.07-710 μM): 33 M⁻¹ s⁻¹; kobs/[I] [2, 4]: 0.5 M⁻¹ s⁻¹; kobs/[I] (chymotrypsin; Table XVI, pH 7.5, 25° C, [I] 1.7-58 μM): 140 M⁻¹ s⁻¹
CC(C)(C)OC(=O)N[C@H](Cc1ccccc1)C(=O)Nc1ccc2c(Cl)c(OCCBr)oc(=O)c2c1 [7-(N-t-butyloxycarbonyl-D-phenylalanyl)amino-4-chloro-3-(2-bromoethoxy)isocoumarin]	30	150			percentage of inhibition (cathepsin G; Table XVI): 19%
C[C@H](NC(=O)OC(C)(C)C)C(=O)N[C@@H](C)C(=O)Nc1ccc2c(Cl)c(OCCBr)oc(=O)c2c1 [7-(N-t-butyloxycarbonyl-L-alanylalanyl)amino-4-chloro-3-(2-bromoethoxy)isocoumarin]	1670		46	230000	kinact/KI (chymotrypsin; [7]): 2750 M⁻¹ s⁻¹; kinact/KI (chymotrypsin; [8]): 810 M⁻¹ s⁻¹
CC(C)(C)OC(=O)N[C@@H](Cc1ccccc1)C(=O)Nc1ccc2c(Cl)c(OCCBr)oc(=O)c2c1 [7-(N-t-butyloxycarbonyl-L-phenylalanyl)amino-4-chloro-3-(2-bromoethoxy)isocoumarin]	50	400			percentage of inhibition (cathepsin G; Table XVI): 19%
C[C@@H](NC(=O)Nc1ccc2c(Cl)c(OCCBr)oc(=O)c2c1)c1ccccc1 [7-(R-α-methylbenzyl)carbamoylamino-4-chloro-3-(2-bromoethoxy)isocoumarin]	9900		77	> 440000	kinact/KI (chymotrypsin; [7]): 180 M⁻¹ s⁻¹; kinact/KI (chymotrypsin; [8]): 90 M⁻¹ s⁻¹
C[C@H](NC(=O)Nc1ccc2c(Cl)c(OCCBr)oc(=O)c2c1)c1ccccc1 [7-(S-α-methylbenzyl)carbamoylamino-4-chloro-3-(2-bromoethoxy)isocoumarin]	2660	440		> 570000	percentage of inhibition (cathepsin G; Table XVI): 21%
O=C(O)c1cccc(NC(=S)Nc2ccc3c(Cl)c(OCCBr)oc(=O)c3c2)c1 [7-(m-carboxyphenyl)thiocarbamoylamino-4-chloro-3-(2-bromoethoxy)isocoumarin]		1960	320	> 240000	
O=C(O)c1ccc(NC(=S)Nc2ccc3c(Cl)c(OCCBr)oc(=O)c3c2)cc1 [7-(p-carboxyphenyl)thiocarbamoylamino-4-chloro-3-(2-bromoethoxy)isocoumarin]		1720	450	> 390000	
CC(=O)Nc1ccc2c(Cl)c(OCCCBr)oc(=O)c2c1 [7-acetylamino-4-chloro-3-(3-bromopropoxy)isocoumarin]	24	3980	170		kinact/KI [1, 9]: 24400 M⁻¹ s⁻¹
Nc1ccc2c(Cl)c(OCCBr)oc(=O)c2c1 [7-amino-4-chloro-3-(2-bromoethoxy)isocoumarin]	1000	1160	410		kinact/KI ([1]; pH 7.5, Table XVI, progress curve method, read-out: kobs/[I]): 200000 M⁻¹ s⁻¹
CC(CBr)Oc1oc(=O)c2cc(N)ccc2c1Cl (stereo not drawn) [7-amino-4-chloro-3-(2-bromoisopropoxy)isocoumarin]	62	320	150		kinact/KI [1, 9]: 24000 M⁻¹ s⁻¹
Nc1ccc2c(Cl)c(OCCCBr)oc(=O)c2c1 [7-amino-4-chloro-3-(3-bromopropoxy)isocoumarin]	10	790	210		kinact/KI [1, 9]: 4000 M⁻¹ s⁻¹
CCCOc1oc(=O)c2cc(N)ccc2c1Cl [7-amino-4-chloro-3-propoxyisocoumarin]	4.3	375	61		kinact/KI [1, 9]: 390 M⁻¹ s⁻¹
O=C(NCc1ccccc1)Nc1ccc2c(Cl)c(OCCBr)oc(=O)c2c1 [7-benzylcarbamoylamino-4-chloro-3-(2-bromoethoxy)isocoumarin]	3010	890		480000	percentage of inhibition (cathepsin G; Table XVI): 23%
O=C(NCc1ccccc1)Nc1ccc2c(Cl)c(OCCCBr)oc(=O)c2c1 [7-benzylcarbamoylamino-4-chloro-3-(3-bromopropoxy)isocoumarin]	13	440			percentage of inhibition (cathepsin G; Table XVI): 21%; kinact/KI [1, 9]: 15600 M⁻¹ s⁻¹
CCCOc1oc(=O)c2cc(NC(=O)CCc3ccccc3)ccc2c1Cl [7-dihydrocinnamoylamino-4-chloro-3-propyloxyisocoumarin]					kinact/KI (cathepsin G; [10]): 20 M⁻¹ s⁻¹; kinact/KI [1, 11]: > 250000 M⁻¹ s⁻¹; kinact/KI [2, 12]: 220 M⁻¹ s⁻¹; kinact/KI (chymotrypsin; [13]): 12000 M⁻¹ s⁻¹
CCCOc1oc(=O)c2cc(NC(=O)OCC)ccc2c1Cl [7-ethoxycarbonylamino-4-chloro-3-propyloxyisocoumarin]					kinact/KI (cathepsin G; [10]): 138 M⁻¹ s⁻¹; kinact/KI [1, 11]: > 181000 M⁻¹ s⁻¹; kinact/KI [2, 12]: 1600 M⁻¹ s⁻¹; kinact/KI (chymotrypsin; [13]): 5200 M⁻¹ s⁻¹
CCCOc1oc(=O)c2cc(NC(=O)NCC)ccc2c1Cl [7-ethylcarbamoylamino-4-chloro-3-propyloxyisocoumarin]					kinact/KI (cathepsin G; [10]): 166 M⁻¹ s⁻¹; kinact/KI [1, 11]: > 276000 M⁻¹ s⁻¹; kinact/KI [2, 12]: 80 M⁻¹ s⁻¹; kinact/KI (chymotrypsin; [13]): 120 M⁻¹ s⁻¹
CC(C)NC(=O)Nc1ccc2c(Cl)c(OCCBr)oc(=O)c2c1 [7-isopropylcarbamoylamino-4-chloro-3-(2-bromoethoxy)isocoumarin]	4470		77	646000	kinact/KI (chymotrypsin; [7]): 1340 M⁻¹ s⁻¹; kinact/KI (chymotrypsin; [8]): 380 M⁻¹ s⁻¹
O=C(Nc1ccc2c(Cl)c(OCCBr)oc(=O)c2c1)Nc1cccc2ccccc12 [7-naphthylcarbamoylamino-4-chloro-3-(2-bromoethoxy)isocoumarin]	76	80		390000	percentage of inhibition (cathepsin G; Table XVI): 22%
O=c1oc(OCCBr)c(Cl)c2ccc([N+](=O)[O-])cc12 [7-nitro-4-chloro-3-(2-bromoethoxy)isocoumarin]	6330		710		kinact/KI [1, 9]: 65600 M⁻¹ s⁻¹; kinact/KI (chymotrypsin; [6]): 98000 M⁻¹ s⁻¹
CC(CBr)Oc1oc(=O)c2cc([N+](=O)[O-])ccc2c1Cl (stereo not drawn) [7-nitro-4-chloro-3-(2-bromoisopropoxy)isocoumarin]	1060		1660		kinact/KI (chymotrypsin; [6]): 200000 M⁻¹ s⁻¹
O=C(Cc1ccccc1)Nc1ccc2c(Cl)c(OCCBr)oc(=O)c2c1 [7-phenylacetylamino-4-chloro-3-(2-bromoethoxy)isocoumarin]	4950		70	480000	kinact/KI (chymotrypsin; [6]): 82000 M⁻¹ s⁻¹
O=C(Cc1ccccc1)Nc1ccc2c(Cl)c(OCCCBr)oc(=O)c2c1 [7-phenylacetylamino-4-chloro-3-(3-bromopropoxy)isocoumarin]	28				percentage of inhibition (cathepsin G; Table XVI): 28%; kinact/KI [1, 9]: 32400 M⁻¹ s⁻¹; kinact/KI (chymotrypsin; [6]): 140000 M⁻¹ s⁻¹
O=C(Nc1ccccc1)Nc1ccc2c(Cl)c(OCCCBr)oc(=O)c2c1 [7-phenylcarbamoylamino-4-chloro-3-(3-bromopropoxy)isocoumarin]	4	180			percentage of inhibition (cathepsin G; Table XVI): 17%; kinact/KI [1, 7]: 13800 M⁻¹ s⁻¹; kinact/KI [1, 8]: 2890 M⁻¹ s⁻¹
CC(C)(C)CC(=O)Nc1ccc2c(Cl)c(OCCBr)oc(=O)c2c1 [7-t-butylacetylamino-4-chloro-3-(2-bromoethoxy)isocoumarin]	3650	1070	240		
CC(C)(C)NC(=O)Nc1ccc2c(Cl)c(OCCBr)oc(=O)c2c1 [7-t-butylcarbamoylamino-4-chloro-3-(2-bromoethoxy)isocoumarin]	6600	320	56		
